From US11078197B2, “5-membered and bicyclic heterocyclic amides as inhibitors of rock” (BRISTOL-MYERS SQUIBB COMPANY, priority 2017, dated 2021) come the findings set out here.

ROCK2, sequence (O75116 whole entry, species assumed): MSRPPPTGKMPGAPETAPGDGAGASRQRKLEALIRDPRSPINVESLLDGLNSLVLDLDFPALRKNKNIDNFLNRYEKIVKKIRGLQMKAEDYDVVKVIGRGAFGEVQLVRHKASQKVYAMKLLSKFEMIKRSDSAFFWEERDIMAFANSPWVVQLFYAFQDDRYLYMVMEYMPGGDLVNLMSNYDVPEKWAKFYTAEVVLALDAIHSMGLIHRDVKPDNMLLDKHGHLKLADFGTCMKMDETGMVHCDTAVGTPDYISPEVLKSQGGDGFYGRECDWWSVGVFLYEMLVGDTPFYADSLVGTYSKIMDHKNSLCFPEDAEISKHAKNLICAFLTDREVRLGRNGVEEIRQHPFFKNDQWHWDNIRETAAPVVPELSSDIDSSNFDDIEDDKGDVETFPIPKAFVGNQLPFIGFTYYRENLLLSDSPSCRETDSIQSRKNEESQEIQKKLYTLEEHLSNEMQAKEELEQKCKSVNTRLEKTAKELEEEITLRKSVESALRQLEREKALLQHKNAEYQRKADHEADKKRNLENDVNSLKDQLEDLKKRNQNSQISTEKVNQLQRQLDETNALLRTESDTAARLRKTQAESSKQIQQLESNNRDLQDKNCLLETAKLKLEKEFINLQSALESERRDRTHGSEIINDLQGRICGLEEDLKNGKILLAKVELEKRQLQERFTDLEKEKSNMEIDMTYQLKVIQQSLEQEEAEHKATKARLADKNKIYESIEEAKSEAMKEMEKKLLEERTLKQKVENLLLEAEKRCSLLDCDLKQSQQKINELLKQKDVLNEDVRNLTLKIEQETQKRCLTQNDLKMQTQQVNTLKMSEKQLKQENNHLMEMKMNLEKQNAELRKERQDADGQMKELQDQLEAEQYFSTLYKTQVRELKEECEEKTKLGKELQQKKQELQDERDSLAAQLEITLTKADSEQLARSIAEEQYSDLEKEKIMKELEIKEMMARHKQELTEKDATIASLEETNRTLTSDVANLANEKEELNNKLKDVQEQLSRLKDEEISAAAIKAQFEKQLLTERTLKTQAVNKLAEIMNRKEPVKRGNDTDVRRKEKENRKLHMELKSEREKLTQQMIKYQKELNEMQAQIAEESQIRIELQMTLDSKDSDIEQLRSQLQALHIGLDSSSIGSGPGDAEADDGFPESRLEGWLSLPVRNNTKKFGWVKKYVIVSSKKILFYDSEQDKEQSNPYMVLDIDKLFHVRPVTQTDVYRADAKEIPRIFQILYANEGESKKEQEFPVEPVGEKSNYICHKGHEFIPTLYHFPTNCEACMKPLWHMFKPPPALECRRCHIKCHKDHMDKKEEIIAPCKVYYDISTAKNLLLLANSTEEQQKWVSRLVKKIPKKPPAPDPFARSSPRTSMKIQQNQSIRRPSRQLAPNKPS

The assay concerns the target ROCK2 (Homo sapiens (Human), UniProt O75116). In words: ROCK2 assay (peptide phosphorylation, LABCHIP 3000 Reader). Particulars: 5 μM ATP, 1.5 μM peptide substrate, dose-response. It is filed as biochemical. As for the experimental part:
After incubation, the reaction was terminated by the addition of EDTA and the phosphorylated and non-phosphorylated peptides separated using a LABCHIP®3000 Reader (Caliper Life Sciences). […] Compounds were tested in dose-response format, and the inhibition of kinase activity was calculated at each concentration of compound. […] Representative Examples were tested in the ROCK2 assay described above and found having ROCK2 inhibitory activity.
The IC50 is the point on the concentration scale where inhibition reaches its midpoint. A lower IC50 goes with inhibition by little substance. `NC(=O)c1sc(C2CC2)nc1O[C@H]1C[C@@]2(C[C@H](NC(=O)c3cnn4cc(OCC(O)(C(F)(F)F)C(F)(F)F)ccc34)C2)C1` (stereo partly drawn) [Example 61, 2-cyclopropyl-4-{[(aR)-6-{6-[3,3,3-trifluoro-2-hydroxy-2-(trifluoromethyl)propoxy]pyrazolo[1,5-a]pyridine-3-amido}spiro[3.3]heptan-2-yl]oxy}-1,3-thiazole-5-carboxamide] gave an IC50 of 0.0555 µM.
Compound `NC(=O)c1sc(C2CC2)nc1O[C@H]1CC2(C[C@H](NC(=O)c3cnn4cc(OCC(F)(F)F)ccc34)C2)C1` (stereo partly drawn) [Example 62, 2-cyclopropyl-4-{[(aR)-6-[6-(2,2,2-trifluoroethoxy)pyrazolo [1,5-a]pyridine-3-amido]spiro[3.3]heptan-2-yl]oxy}-1,3-thiazole-5-carboxamide] came in with an IC50 of 0.0116 µM.
`NC(=O)c1sc(C2CC2)nc1O[C@H]1C[C@@]2(C[C@H](NC(=O)c3nc(C(F)(F)F)n4cc(-c5ccc(F)nc5)ccc34)C2)C1` (stereo partly drawn) [Example 63, 2-cyclopropyl-4-{[(aR)-6-[6-(6-fluoropyridin-3-yl)-3-(trifluoromethyl)imidazo[1,5-a]pyridine-1-amido]spiro[3.3]heptan-2-yl]oxy}-1,3-thiazole-5-carboxamide] yielded a 50% inhibitory concentration (IC50) of 0.0061 µM.
`NC(=O)c1sc(C2CC2)nc1O[C@H]1C[C@@]2(C[C@H](NC(=O)c3nc(C(F)(F)F)n4ccccc34)C2)C1` (stereo partly drawn) [Example 64, 2-cyclopropyl-4-{[(aR)-6-[3-(trifluoromethyl)imidazo[1,5-a]pyridine-1-amido]spiro[3.3]heptan-2-yl]oxy}-1,3-thiazole-5-carboxamide] gave an IC50 of 0.0114 µM.
Compound `Cc1c(C(=O)N[C@H]2C[C@]3(C2)C[C@H](Oc2nn(C4CC4)cc2C(N)=O)C3)cnn1-c1ccccc1` (stereo partly drawn) [Example 65, 1-cyclopropyl-3-{[(aR)-6-(5-methyl-1-phenyl-1H-pyrazole-4-amido)spiro[3.3]heptan-2-yl]oxy}-1H-pyrazole-4-carboxamide] gave a half-inhibitory concentration (IC50) of 0.141 µM.
Consider `Cc1c(C(=O)N[C@H]2C[C@]3(C2)C[C@H](Oc2nn(C4CC4)cc2C(N)=O)C3)cnn1-c1ccc(F)cc1F` (stereo partly drawn) [Example 66, 1-cyclopropyl-3-{[(aR)-6-[1-(2,4-difluorophenyl)-5-methyl-1H-pyrazole-4-amido]spiro[3.3]heptan-2-yl]oxy}-1H-pyrazole-4-carboxamide], for which the half-maximal inhibitory concentration (IC50) was determined as 0.225 µM.
Compound `Cc1c(C(=O)N[C@H]2C[C@]3(C2)C[C@H](Oc2nc(C4CC4)sc2C(N)=O)C3)cnn1-c1ccc(F)cc1F` (stereo partly drawn) [Example 67, 2-cyclopropyl-4-{[(aR)-6-[1-(2,4-difluorophenyl)-5-methyl-1H-pyrazole-4-amido]spiro[3.3]heptan-2-yl]oxy}-1,3-thiazole-5-carboxamide] showed an IC50 of 0.142 µM.
Regarding `Cc1c(C(=O)N[C@H]2C[C@]3(C2)C[C@H](Oc2nc(C4CC4)sc2C(N)=O)C3)cnn1-c1ccccc1` (stereo partly drawn) [Example 68, 2-cyclopropyl-4-{[(aR)-6-(5-methyl-1-phenyl-1H-pyrazole-4-amido)spiro[3.3]heptan-2-yl]oxy}-1,3-thiazole-5-carboxamide], half-maximal inhibition (IC50) required 0.108 µM.
Under `CC(C)(O)COc1ccc2c(C(=O)N[C@H]3C[C@]4(C3)C[C@H](Oc3nn(C5CC5)cc3C(N)=O)C4)cnn2c1C1CC1` (stereo partly drawn) [Example 69, 1-cyclopropyl-3-({(aR)-6-[7-cyclopropyl-6-(2-hydroxy-2-methylpropoxy)pyrazolo [1,5-a]pyridine-3-amido]spiro[3.3]heptan-2-yl}oxy)-1H-pyrazole-4-carboxamide] stands 0.0045 µM.
With `Cc1nc(O[C@H]2C[C@@]3(C[C@H](NC(=O)c4cnn5cc(OCC(F)F)ccc45)C3)C2)c(C(N)=O)s1` (stereo partly drawn) [Example 70, 2-methyl-4-{[(aR)-6-[6-(2,2-difluoroethoxy)pyrazolo [1,5-a]pyridine-3-amido]spiro[3.3]heptan-2-yl]oxy}-1,3-thiazole-5-carboxamide], the IC50 was found to be 0.0454 µM.
Compound `CC(C)(O)COc1ccc2c(C(=O)N[C@H]3C[C@]4(C3)C[C@H](Oc3nc5ccccc5cc3C(N)=O)C4)cnn2c1C1CC1` (stereo partly drawn) [Example 71, 2-(((aR)6-(7-cyclopropyl-6-(2-hydroxy-2-methylpropoxy)pyrazolo [1,5-a]pyridine-3-carboxamido)spiro [3.3]heptan-2-yl)oxy)quinoline-3-carboxamide] displayed a 50% inhibitory concentration (IC50) of 0.0087 µM.
`Cc1nn(C)c2nc(OC3CC4(CC(NC(=O)c5cnn6cc(OCC(C)(C)O)ccc56)C4)C3)c(C(N)=O)cc12` (stereo not shown) [Example 73, 6-({6-[6-(2-hydroxy-2-methylpropoxy)pyrazolo [1,5-a]pyridine-3-amido]spiro[3.3]heptan-2-yl}oxy)-1,3-dimethyl-1H-pyrazolo[3,4-b]pyridine-5-carboxamide] returned an IC50 of 1.16 µM.
The compound `NC(=O)c1cc2sccc2nc1OC1CC2(CC(NC(=O)c3cnn4ccccc34)C2)C1` (stereo not shown) [Example 75, 5-[(6-{pyrazolo[1,5-a]pyridine-3-amido}spiro[3.3]heptan-2-yl)oxy]thieno[3,2-b]pyridine-6-carboxamide] yielded a concentration for half-maximal inhibition (IC50) of 0.0267 µM.
With `CC(C)(O)COc1ccc2c(C(=O)NC3CC4(C3)CC(Oc3nc5ccsc5cc3C(N)=O)C4)cnn2c1` (stereo not shown) [Example 76, 5-({6-[6-(2-hydroxy-2-methylpropoxy)pyrazolo[1,5-a]pyridine-3-amido]spiro[3.3]heptan-2-yl}oxy)thieno[3,2-b]pyridine-6-carboxamide], half-maximal inhibition (IC50) required 0.0068 µM.
`NC(=O)c1cc2sccc2nc1OC1CC2(CC(NC(=O)C3CCC(F)(F)CC3)C2)C1` (stereo not shown) [Example 77, 5-{[6-(4,4-difluorocyclohexane amido)spiro[3.3]heptan-2-yl]oxy}thieno[3,2-b]pyridine-6-carboxamide] had an IC50 of 0.634 µM.
In turn, `N#Cc1cccc(C(=O)NC2CC3(C2)CC(Oc2nc4ccsc4cc2C(N)=O)C3)c1` (stereo not shown) [Example 79, 5-{[6-(3-cyanobenzamido)spiro[3.3]heptan-2-yl]oxy}thieno[3,2-b]pyridine-6-carboxamide] came in with an IC50 of 0.0222 µM.
In the case of `NC(=O)c1cc2c(nc1OC1CC3(CC(NC(=O)c4cnn5ccccc45)C3)C1)CCOC2` (stereo not shown) [Example 81, 2-[(6-{pyrazolo[1,5-a]pyridine-3-amido}spiro[3.3]heptan-2-yl)oxy]-5H,7H,8H-pyrano[4,3-b]pyridine-3-carboxamide], the midpoint of inhibition, the IC50, lay at 0.323 µM.
Under `CC(C)(O)COc1ccc2c(C(=O)NC3CC4(C3)CC(Oc3nc5c(cc3C(N)=O)COCC5)C4)cnn2c1` (stereo not shown) [Example 82, N-[6-({3-carbamoyl-5H,7H,8H-pyrano[4,3-b]pyridin-2-yl}oxy)spiro[3.3]heptan-2-yl]-6-(2-hydroxy-2-methylpropoxy) pyrazolo[1,5-a]pyridine-3-carboxamide] stands 0.02 µM; under `N#Cc1cccc(C(=O)N[C@H]2C[C@]3(C2)C[C@H](Oc2nc4ccsc4cc2C(N)=O)C3)c1` (stereo partly drawn) [Example 83, 5-{[(aR)-6-(3-cyanobenzamido)spiro[3.3]heptan-2-yl]oxy}thieno[3,2-b]pyridine-6-carboxamide], 0.0097 µM.
Under `CC(C)(O)COc1ccc2c(C(=O)N[C@H]3C[C@]4(C3)C[C@H](Oc3nc5ccsc5cc3C(N)=O)C4)cnn2c1` (stereo partly drawn) [Example 84, 6-(2-hydroxy-2-methylpropoxy)-N-[(aR)-6-({6-carbamoylthieno[3,2-b]pyridin-5-yl}oxy)spiro[3.3]heptan-2-yl]pyrazolo[1,5-a]pyridine-3-carboxamide] stands 0.0022 µM.
Compound `N#Cc1cccc(C(=O)N[C@H]2C[C@]3(C2)C[C@H](Oc2nc4c(cc2C(N)=O)COCC4)C3)c1` (stereo partly drawn) [Example 85, 2-{[(aR)-6-(3-cyanobenzamido)spiro[3.3]heptan-2-yl]oxy}-5H,7H,8H-pyrano[4,3-b]pyridine-3-carboxamide] gave an IC50 of 0.144 µM.
Take `NC(=O)c1cc2sccc2nc1O[C@H]1C[C@]2(C1)C[C@H](N1C(=O)CN(Cc3ccccc3)CC1=O)C2` (stereo partly drawn) [Example 86, 5-{[(aR)-6-(4-benzyl-2,6-dioxopiperazin-1-yl)spiro[3.3]heptan-2-yl]oxy}thieno[3,2-b]pyridine-6-carboxamide]: 0.0859 µM corresponded to half-maximal inhibition (IC50).
`N#Cc1cc(C(=O)N[C@H]2C[C@]3(C2)C[C@H](Oc2nc4c(cc2C(N)=O)COCC4)C3)ccc1F` (stereo partly drawn) [Example 87, 2-{[(aR)-6-(3-cyano-4-fluorobenzamido)spiro[3.3]heptan-2-yl]oxy}-5H,7H,8H-pyrano[4,3-b]pyridine-3-carboxamide]: 0.156 µM corresponded to half-maximal inhibition (IC50).
`N#CCc1cccc(C(=O)N[C@H]2C[C@]3(C2)C[C@H](Oc2nc4c(cc2C(N)=O)COCC4)C3)c1` (stereo partly drawn) [Example 88, 2-{[(aR)-6-[3-(cyanomethyl)benzamido]spiro[3.3]heptan-2-yl]oxy}-5H,7H,8H-pyrano[4,3-b]pyridine-3-carboxamide]: the IC50 stood at 0.035 µM.
`N#Cc1ccc(F)c(C(=O)N[C@H]2C[C@]3(C2)C[C@H](Oc2nc4c(cc2C(N)=O)COCC4)C3)c1` (stereo partly drawn) [Example 89, 2-{[(aR)-6-(5-cyano-2-fluorobenzamido)spiro[3.3]heptan-2-yl]oxy}-5H,7H,8H-pyrano[4,3-b]pyridine-3-carboxamide]: the IC50 came to 0.716 µM.
In turn, `COc1ccc(C(=O)N[C@H]2C[C@]3(C2)C[C@H](Oc2nc4c(cc2C(N)=O)COCC4)C3)cc1C#N` (stereo partly drawn) [Example 90, 2-{[(aR)-6-(3-cyano-4-methoxybenzamido)spiro[3.3]heptan-2-yl]oxy}-5H,7H,8H-pyrano[4,3-b]pyridine-3-carboxamide] registered an IC50 of 0.114 µM.
In the case of `NC(=O)c1cc2c(nc1O[C@H]1C[C@@]3(C[C@H](NC(=O)c4ccc5[nH]ncc5c4)C3)C1)CCOC2` (stereo partly drawn) [Example 91, N-[(aR)-6-({3-carbamoyl-5H,7H,8H-pyrano[4,3-b]pyridin-2-yl}oxy)spiro[3.3]heptan-2-yl]-1H-indazole-5-carboxamide], the IC50 was found to be 0.33 µM.
The same measure for `N#Cc1cc(C(=O)N[C@H]2C[C@]3(C2)C[C@H](Oc2nc4c(cc2C(N)=O)COCC4)C3)ccc1Br` (stereo partly drawn) [Example 92, 2-{[(aR)-6-(4-bromo-3-cyanobenzamido)spiro[3.3]heptan-2-yl]oxy}-5H,7H,8H-pyrano[4,3-b]pyridine-3-carboxamide]: 0.191 µM.
